The record followed here is publication PMC4076215, “Nickel(II) Complex of Polyhydroxybenzaldehyde N4-Thiosemicarbazone Exhibits Anti-Inflammatory Activity by Inhibiting NF-κB Transactivation” (PLoS ONE, 2014).

One may read the IC50 as the concentration at which inhibition is half-maximal.

In brackets after ≈: the same amount, converted by molar mass.

The subject of one experiment is HeLa S3 cells. The experiment can be described thus: Cell proliferation (MTT) assay, HeLa S3. The note with it: for IC50: Homo sapiens, HeLa S3, 48 h, read-out: IC50 (cell viability, MTT); for IC50 (cell viability, MTT): HeLa S3 cells, 48 h treatment.
The subject of another experiment is RAW264.7 cells. The experiment can be described thus: Cell proliferation (MTT) assay, RAW264.7. To be noted: for IC50: Mus musculus, RAW264.7, 48 h, read-out: IC50 (cell viability, MTT); for IC50 (cell viability, MTT): RAW264.7 cells, 48 h treatment.
A short description of the next experiment: ORAC antioxidant assay. The format is physicochemical. How it is done: ORAC assay was performed based on reported procedures with slight modifications. Chemicals used such as fluorescein sodium salt, AAPH (2,2′-Azobis(2-methylpropionamidine) dihydrochloride), quercetin dehydrate and trolox ((±)-6-Hydroxy-2,5,7,8-tetramethylchromane-2-carboxylic acid) were purchased from Sigma-Aldrich. Compounds were diluted to a final concentration of 100 µg/ml, with total reaction volume of 200 µl. The assay was performed in a 96-well black microplate, with 25 µl of samples, standard (trolox), blank (solvent/PBS) or positive control (quercetin). Subsequently, 150 µl of working fluorescein solution was added to each well. The plate was incubated at 37°C for at least 5 min. Then, 25 µl of AAPH working solution was then added to the wells to make a total volume of 200 µl. […] Data were collected every 2 min for a duration of 2 h, and were analyzed by calculating the differences of area under fluorescence decay curve (AUC) of samples and blank. The values were expressed as Trolox equivalent (TE).
ROS may amplify inflammatory responses via up-regulation or activation of certain genes/transcription factors, such as NF-κB. […] Therefore, we conducted ORAC assays to investigate the antioxidant capacity of complex 5. The ORAC assay uses peroxyl radical as pro-oxidant and the antioxidant activity is quantified via area under curve (AUC). We included quercetin, a known antioxidant, as a positive control.

Experiment [1] has as its system carrageenan-induced paw edema. The experiment can be described thus: Carrageenan-induced paw edema mouse model. The class given is in vivo, C57BL/6 mice. The note with it: 2.0 mg/kg i.p., 1 h after carrageenan; control 7.3±0.8 mm. As to the method:
Male C57BL/6 mice at age 8–12 weeks old were from Jackson Laboratories, USA. Mice were administrated intraperitoneally (i.p.) with two different doses of complex 5 (2.5 mg/kg and 5 mg/kg). Negative control groups were i.p. injected with 200 µl of vehicle (50% v/v ethanol). A standard drug 2 mg/kg dexamethasone (Sigma) was included in the study. After 1 h, paw edema was induced by injecting 50 µl of 1% carrageenan (Sigma) through the plantar tissue at the right hind paw of each mouse. The thickness of right paw of each mouse was measured at 1, 3 and 5 h after carrageenan was administered. Four animals per group were tested (n = 4). Quantification of right hind paw thickness were analyzed for statistical significance using Student's t-test. Animals were housed in individually ventilated cages in specific pathogen free facility, Animal Experimental Unit, University of Malaya. All efforts were made to minimize animal suffering and the number of animals used. At the end of the experiment, mice were euthanized by CO2 asphyxiation. Animal work was approved by the Faculty of Medicine Animal Care and Use Committee (FOMIACUC) at University of Malaya and reported according to ARRIVE guidelines.
To test the in vivo inhibitory effect of complex 5 on inflammation, we administrated two doses of complex 5 (2.5 mg/kg and 5.0 mg/kg) into C57BL/6 wild type mice through i.p. injection. For a positive control, we performed i.p. injection of 2.0 mg/kg dexamethasone into the mice. After 1 h, paw edema in the mice was induced by injecting 1% carrageenan to the right hind paw. The paw sizes were measured at 1, 3 and 5 h after edema induction. The edema formation at the mice paw was due to inflammatory response causing the accumulation of histamine, serotonin, prostaglandin and other secreted inflammatory mediators.
Male C57BL/6 mice at age of 8-12 weeks old were non-injected or injected i.p. with 2.5 mg/kg or 5.0 mg/kg complex 5, whereas for positive controls, mice were injected i.p. with 2.0 mg/kg dexamethasone. After 1 h, acute inflammation was induced in the right hind paw of each mice by injecting 50 µl of carrageenan. The size of the paw were measured after (A) 1 h or, (B) 1, 3 and 5 h post carrageenan injection. Shown were mean ±SD (n = 4). Statistical analysis was performed with Student's t-test.
On the technique in general: In the carrageenan paw model, swelling and tenderness develop within hours.

Experiment [2] has as its system NF-κB p65 nuclear translocation. The experiment can be described thus: NF-κB p65 immunofluorescence staining, LPS-stimulated RAW264.7. The format is cell-based. The note with it: RAW264.7, 25 µg/ml pre-treatment 4 h, LPS 1 h. As to the method: NF-κB Activation Kits (Thermo Scientific) were used as previously described. Cells were pretreated with compounds for 4 h before being stimulated with lipopolysaccharide (LPS) ortumour necrosis factor α (TNFα) for 1 h. Cells were then fixed and permeabilized before probing with NF-κB p65 antibody for 1 h. Staining solution (containing DyLight 488 Goat Anti-Rabbit and Hoechst dye) was then added and incubated for 1 h. The plate with stained cells was evaluated using a Cellomics ArrayScan HCS Reader (Cellomics, PA, USA). Data were captured, extracted and analyzed with ArrayScan II Data Acquisition and Data Viewer version 3.0 (Cellomics).
NF-κB acts as a central mediator of inflammatory responses and compounds that inhibit NF-κB activation are potential anti-inflammatory agents. To evaluate this, we performed immunofluorescence staining of NF-κB p65. […] In response to LPS stimulation, NF-κB p65 translocated from cytoplasm into the nucleus, implying NF-κB activation (Figure 3). […] Moreover, we observed that complex 6–8 required higher concentration (>50 µg/ml) to elicit similar inhibitory effect (data not shown).
Figure 3 Effect of N4-substituteted thiosemicarbazone complexes on LPS-induced NF-κB nuclear transloction in RAW264.7 macrophage cells. Staining of Hoechst (nucleus) and NF-κB in RAW264.7 cells. […]

Procedure for HeLa S3 cells: (§1) A total number of 1.0×10^4 cells per well were seeded into a 96-well plate and incubated overnight at 37°C in 5% CO2. The next day, the cells were treated with a two-fold serial dilution of compounds. MTT assays were performed as described [27]. After 48 h, (4,5-dimethylthiazol-2-yl-2,5-diphenyltetrazoliumbromide) was added at 2 mg/ml. After 3 h of incubation at 37°C in 5% CO2, DMSO was added to dissolve the formazan crystals. The plates were then read in Chameleon multitechnology microplate reader (Hidex, Turku, Finland) at 570 nm absorbance. The ratio of the absorbance of treated cells to the absorbance of DMSO-treated control cells was determined as percentage cell viability.
(§2) To examine whether synthesized Ni(II) thiosemicarbazone ligands or Ni(II)-phosphine complexes were cytotoxic, we treated RAW264.7 (leukemic monocyte macrophage) and HeLa S3 (cervical adenocarcinoma) cells with these compounds for 48 h. The cell viability was determined with MTT assays [33].
Procedure for RAW264.7 cells: as §1, §2

In the case of `CNC(=S)N/N=C/c1cccc(O)c1O` [ligand 2], the half-maximal inhibitory concentration (IC50) is more than 100 µg/mL in the experiment on HeLa S3 cells and 27.8 ± 0.96 µg/mL (≈ 124 µM) in the experiment with RAW264.7 cells. For the same compound, the “Antioxidant capacity, Trolox equivalent” value in the experiment “ORAC antioxidant assay” was 8.23±0.43 µM TE per 100 µM.
Take `Oc1cccc2c1[O][Ni-2]1([P+](c3ccccc3)(c3ccccc3)c3ccccc3)[S]C(Nc3ccccc3)=N[N+]1=C2` (stereo not drawn) [complex 7]: the “IC50 (cell viability, MTT)” value with HeLa S3 cells is more than 100 µg/mL; with RAW264.7 cells, 42.44 ± 4.17 µg/mL. Further, the “Antioxidant capacity, Trolox equivalent” value in the experiment “ORAC antioxidant assay” was found to be 9.37±1.14 µM TE per 100 µM.
The matching figures for `CNC(=S)NN=Cc1cccc(O)c1[O-].[Cl-].[Ni+2].c1ccc(P(c2ccccc2)c2ccccc2)cc1` [complex 6, (6-Hydroxy-2-{[2-(N-methylcarbamothiolyl)hydrazin-1-ylidene-[kappa]2N1,S]methyl}phenolato-[kappa]O1)(triphenylphosphane-[kappa]P)nickel(II) chloride]: 77.55 ± 1.56 µg/mL, 37.73 ± 3.62 µg/mL and 15.65±0.89 µM TE per 100 µM.
Consider `O=c1c(O)c(-c2ccc(O)c(O)c2)oc2cc(O)cc(O)c12` [Quercetin, quercetin dehydrate, reference compound], for which the “Antioxidant capacity, Trolox equivalent” value in the experiment “ORAC antioxidant assay” was determined as 24.41±0.35 µM TE per 100 µM.
As for `C[C@@H]1C[C@H]2[C@@H]3CCC4=CC(=O)C=C[C@]4(C)[C@@]3(F)[C@@H](O)C[C@]2(C)[C@@]1(O)C(=O)CO` [dexamethasone, reference compound], in experiment [1], the Paw size is given as 4.6±0.4 mm.
With `CCNC(=S)N/N=C/c1cccc(O)c1O` [ligand 4], the IC50 in the experiment on HeLa S3 cells is 87.2 ± 1.81 µg/mL (≈ 364 µM); with RAW264.7 cells it was 19.4 ± 1.07 µg/mL (≈ 80.9 µM). For the same compound, the “Antioxidant capacity, Trolox equivalent” value in the experiment “ORAC antioxidant assay” stood at 7.54±1.61 µM TE per 100 µM.
As for `Oc1cccc(/C=N/NC(=S)Nc2ccccc2)c1O` [ligand 3], the IC50 in the experiment with HeLa S3 cells was more than 100 µg/mL; with RAW264.7 cells, 31.5 ± 1.82 µg/mL (≈ 110 µM). Besides, the “Antioxidant capacity, Trolox equivalent” value in the experiment “ORAC antioxidant assay” turned out to be 9.71±0.77 µM TE per 100 µM.
Regarding `NC(=S)N/N=C/c1cccc(O)c1O` [ligand 1], the 50% inhibitory concentration (IC50) in the experiment on HeLa S3 cells was more than 100 µg/mL; with RAW264.7 cells it was 22.8 ± 1.67 µg/mL (≈ 108 µM). The “Inhibition of LPS-mediated NF-κB p65 nuclear translocation” value in experiment [2] is “did not affect NF-κB translocation”. For the same compound, in the experiment “ORAC antioxidant assay”, the “Antioxidant capacity, Trolox equivalent” value stood at 5.18±0.05 µM TE per 100 µM.
For the compound `CCNC1=N[N+]2=Cc3cccc(O)c3[O][Ni-2]2([P+](c2ccccc2)(c2ccccc2)c2ccccc2)[S]1` (stereo not drawn) [complex 8], the entries for the “IC50 (cell viability, MTT)” value in the experiment on HeLa S3 cells and in the experiment with RAW264.7 cells were more than 100 µg/mL and 56.31 ± 3.86 µg/mL, respectively. The “Antioxidant capacity, Trolox equivalent” value in the experiment “ORAC antioxidant assay” was 13.34±1.49 µM TE per 100 µM.
